pIC50: −log10 of the molar value.

As usually defined, the pIC50 is −log10 of the IC50, conventionally taken in molar units. Low values mean a large IC50, high ones a small IC50.

This assay deals with T1, human Npt2a (Homo sapiens, UniProt Q06495).
T1 construct: expressed in transfected cells
T1 sequence (Q06495 1-639): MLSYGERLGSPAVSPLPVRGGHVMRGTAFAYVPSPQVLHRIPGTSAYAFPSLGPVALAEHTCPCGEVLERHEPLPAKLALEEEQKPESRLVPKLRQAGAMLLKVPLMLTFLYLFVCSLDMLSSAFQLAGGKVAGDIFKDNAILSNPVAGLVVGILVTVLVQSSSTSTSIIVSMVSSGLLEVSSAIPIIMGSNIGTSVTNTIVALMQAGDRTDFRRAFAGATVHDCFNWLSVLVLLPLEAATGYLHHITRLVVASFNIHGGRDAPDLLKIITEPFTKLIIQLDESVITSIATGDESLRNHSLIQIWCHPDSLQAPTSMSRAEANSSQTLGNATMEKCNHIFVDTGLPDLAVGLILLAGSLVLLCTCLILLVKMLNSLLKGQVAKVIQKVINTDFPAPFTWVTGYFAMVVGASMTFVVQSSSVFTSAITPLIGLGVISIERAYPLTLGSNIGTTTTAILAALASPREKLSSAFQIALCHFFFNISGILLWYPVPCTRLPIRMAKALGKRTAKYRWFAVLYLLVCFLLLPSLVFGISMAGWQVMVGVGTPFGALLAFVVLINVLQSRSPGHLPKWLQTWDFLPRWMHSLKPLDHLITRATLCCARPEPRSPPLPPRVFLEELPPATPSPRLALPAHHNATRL
In words: Npt2a activity cell based assay, membrane potential dye, CHO T-REx hNpt2a cells. The settings on record: doxycycline-induced, depolarization by sodium phosphate influx, average or median values if tested more than once. An outline of the steps: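 Doxycycline-induced (0.5 μg/mL, 24 h) CHO T-REx cells were loaded with membrane potential dye in sodium-free NHE buffer (pH 7.4) and exposed to compound (50 μM–1 nM, 5 min, room temperature).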
The molecule `Cc1cc(C)n(-c2cc(Nc3c(C)c(-c4ccc(C(F)F)cc4)nn3CC3CC3)ncn2)n1` [Example 305, N-{1-(cyclopropylmethyl)-3-[4-(difluoromethyl)phenyl]-4-methyl-1H-pyrazol-5-yl}-6-(3,5-dimethyl-1H-pyrazol-1-yl)pyrimidin-4-amine] had a pIC50 of 7.57.

For the molecule `CCOC(=O)c1cc(C)nn1-c1cc(Nc2nn(C)c(-c3ccc(F)cc3)c2Cl)ncn1` [Example 447, ethyl 1-(6-{[4-chloro-5-(4-fluorophenyl)-1-methyl-1H-pyrazol-3-yl]amino}pyrimidin-4-yl)-3-methyl-1H-pyrazole-5-carboxylate], the pIC50 was 6.25. Regarding `CCc1c(Nc2cc(-n3nc(C)c(Cl)c3C(C)(C)O)ncn2)nn(C)c1-c1ccc(F)cc1` [Example 195, 2-[4-chloro-1-(6-{[4-ethyl-5-(4-fluorophenyl)-1-methyl-1H-pyrazol-3-yl]amino}pyrimidin-4-yl)-3-methyl-1H-pyrazol-5-yl]propan-2-ol], the pIC50 was 8.52.

In the case of `CCc1c(Nc2cc(-n3nc(C)c(C(=O)N4CCC(C(F)(F)F)C4)c3C)ncn2)nn(C)c1-c1ccc(F)cc1` (centres unmarked) [Example 272, [1-(6-{[4-ethyl-5-(4-fluorophenyl)-1-methyl-1H-pyrazol-3-yl]amino}pyrimidin-4-yl)-3,5-dimethyl-1H-pyrazol-4-yl][3-(trifluoromethyl)pyrrolidin-1-yl]methanone], the pIC50 is 6.47.

Molecule `CCc1c(Nc2cc(-n3nc(C)c(C#N)c3C)ncn2)n[nH]c1-c1ccc(F)cc1` [Example 108, 1-(6-{[4-ethyl-5-(4-fluorophenyl)-1H-pyrazol-3-yl]amino}pyrimidin-4-yl)-3,5-dimethyl-1H-pyrazole-4-carbonitrile] gave a negative-log IC50 (pIC50) of 7.03. As for `Cc1nn(-c2cc(Nc3c(C)c(-c4ccc(F)cc4)nn3CC3CC3)ncn2)c(C)c1C(F)(F)F` [Example 381, N-[1-(cyclopropylmethyl)-3-(4-fluorophenyl)-4-methyl-1H-pyrazol-5-yl]-6-[3,5-dimethyl-4-(trifluoromethyl)-1H-pyrazol-1-yl]pyrimidin-4-amine], the pIC50 was 8.10. The molecule `CCOC(=O)c1c(C)nn(-c2cc(Nc3c(C)c(-c4ccc(C(F)(F)F)cc4)nn3CC3CC3)ncn2)c1C` [Example 285, ethyl 1-[6-({1-(cyclopropylmethyl)-4-methyl-3-[4-(trifluoromethyl)phenyl]-1H-pyrazol-5-yl}amino)pyrimidin-4-yl]-3,5-dimethyl-1H-pyrazole-4-carboxylate] had a pIC50 of 6.85. The same measure for `CCOC(=O)c1c(C)nn(-c2cc(Nc3nn(CC(F)F)c(-c4ccc(F)cc4)c3CC)ncn2)c1C` [Example 177, ethyl 1-(6-{[1-(2,2-difluoroethyl)-4-ethyl-5-(4-fluorophenyl)-1H-pyrazol-3-yl]amino}pyrimidin-4-yl)-3,5-dimethyl-1H-pyrazole-4-carboxylate]: 7.39; for `Cc1cc(C(F)F)n(-c2cc(Nc3n[nH]c(-c4ccc(F)cc4)c3C)ncn2)n1` [Example 66, 6-[5-(difluoromethyl)-3-methyl-1H-pyrazol-1-yl]-N-[5-(4-fluorophenyl)-4-methyl-1H-pyrazol-3-yl]pyrimidin-4-amine]: 7.06. The same measure for `CCc1c(Nc2cc(-n3nc(C)c(C(=O)N4CC(F)C4)c3C)ncn2)nn(C)c1-c1ccc(F)cc1` [Example 126, [1-(6-{[4-ethyl-5-(4-fluorophenyl)-1-methyl-1H-pyrazol-3-yl]amino}pyrimidin-4-yl)-3,5-dimethyl-1H-pyrazol-4-yl](3-fluoroazetidin-1-yl)methanone]: 6.01; for `COC(C)c1c(C)nn(-c2cc(Nc3nn(C)c(-c4ccc(F)cc4)c3C)ncn2)c1C` (single isomer, unassigned) [Example 345, N-[5-(4-fluorophenyl)-1,4-dimethyl-1H-pyrazol-3-yl]-6-{4-[1-methoxyethyl]-3,5-dimethyl-1H-pyrazol-1-yl}pyrimidin-4-amine]: 8.15; for `COc1c(-c2ccc(C#N)cc2)nn(CC2CC2)c1Nc1cc(-n2nc(C)c(C(C)=O)c2C)ncn1` [Example 318, 4-[5-{[6-(4-acetyl-3,5-dimethyl-1H-pyrazol-1-yl)pyrimidin-4-yl]amino}-1-(cyclopropylmethyl)-4-methoxy-1H-pyrazol-3-yl]benzonitrile]: 6.10.

Molecule `Cc1cc(C)n(-c2cc(Nc3nn(C)c(-c4ccc(F)cc4)c3CN3CCCC3)ncn2)n1` [Example 194, 6-(3,5-dimethyl-1H-pyrazol-1-yl)-N-[5-(4-fluorophenyl)-1-methyl-4-(pyrrolidin-1-ylmethyl)-1H-pyrazol-3-yl]pyrimidin-4-amine] gave a pIC50 of 5.89. Take `CCc1c(Nc2cc(-n3nc(C)c(CO)c3C)ncn2)nn(C)c1-c1ccc(F)cc1` [Example 58, [1-(6-{[4-ethyl-5-(4-fluorophenyl)-1-methyl-1H-pyrazol-3-yl]amino}pyrimidin-4-yl)-3,5-dimethyl-1H-pyrazol-4-yl]methanol]: the pIC50 was 6.12. In turn, `COCCn1nc(-c2ccc(F)cn2)c(C)c1Nc1cc(-n2nc(C)cc2C(F)F)ncn1` [Example 543, 6-[5-(difluoromethyl)-3-methyl-1H-pyrazol-1-yl]-N-[3-(5-fluoropyridin-2-yl)-1-(2-methoxyethyl)-4-methyl-1H-pyrazol-5-yl]pyrimidin-4-amine] had a pIC50 of 6.32. Consider `Cc1nn(-c2cc(Nc3nn(C)c(-c4ccc(F)cc4)c3Cl)ncn2)c(C)c1C(C)(C)O` [Example 276, 2-[1-(6-{[4-chloro-5-(4-fluorophenyl)-1-methyl-1H-pyrazol-3-yl]amino}pyrimidin-4-yl)-3,5-dimethyl-1H-pyrazol-4-yl]propan-2-ol], for which the negative-log IC50 (pIC50) was 7.60. In turn, `Cc1nn(-c2cc(Nc3c(C)c(-c4ccc(OC(F)(F)F)cc4)nn3CC3CC3)ncn2)c(C)c1Cl` [Example 310, 6-(4-chloro-3,5-dimethyl-1H-pyrazol-1-yl)-N-{1-(cyclopropylmethyl)-4-methyl-3-[4-(trifluoromethoxy)phenyl]-1H-pyrazol-5-yl}pyrimidin-4-amine] had a pIC50 of 7.68. The same measure for `CCc1c(Nc2cc(-n3nc(C)c(C(=O)N(C)C)c3C)ncn2)nn(C)c1-c1ccc(F)cc1` [Example 127, 1-(6-{[4-ethyl-5-(4-fluorophenyl)-1-methyl-1H-pyrazol-3-yl]amino}pyrimidin-4-yl)-N,N,3,5-tetramethyl-1H-pyrazole-4-carboxamide]: 5.92. As to `Cc1nn(-c2cc(Nc3nn(C)c(-c4ccc(C(F)(F)F)nc4)c3C)ncn2)c(C)c1Cl` [Example 553, 6-(4-chloro-3,5-dimethyl-1H-pyrazol-1-yl)-N-{1,4-dimethyl-5-[6-(trifluoromethyl)pyridin-3-yl]-1H-pyrazol-3-yl}pyrimidin-4-amine], the pIC50 is 8.14.

The molecule `CCc1c(-c2ccc(F)cc2)nn(CC2CC2)c1Nc1cc(-n2nc(C)c(C(=O)OC(C)(C)C)c2C(F)F)ncn1` [Example 193, tert-butyl 1-(6-{[1-(cyclopropylmethyl)-4-ethyl-3-(4-fluorophenyl)-1H-pyrazol-5-yl]amino}pyrimidin-4-yl)-5-(difluoromethyl)-3-methyl-1H-pyrazole-4-carboxylate] showed a pIC50 of 7.29.

For `Cc1c(-c2ccc(C#N)cc2)nn(CC2CC2)c1Nc1cc(-n2nc(C)c3ncccc32)ncn1` [Example 232, 4-[1-(cyclopropylmethyl)-4-methyl-5-{[6-(3-methyl-1H-pyrazolo[4,3-b]pyridin-1-yl)pyrimidin-4-yl]amino}-1H-pyrazol-3-yl]benzonitrile], the pIC50 is 8.22.

Take `CCOC(=O)c1c(C)nn(-c2cc(Nc3c(C)c(-c4ccc(Cl)cc4)nn3C)ncn2)c1C` [Example 367, ethyl 1-(6-{[3-(4-chlorophenyl)-1,4-dimethyl-1H-pyrazol-5-yl]amino}pyrimidin-4-yl)-3,5-dimethyl-1H-pyrazole-4-carboxylate]: the pIC50 is 7.40. `Cc1cc(C)n(-c2cc(Nc3c(C)c(-c4ccccc4)nn3C)ncn2)n1` [Example 75, N-(1,4-dimethyl-3-phenyl-1H-pyrazol-5-yl)-6-(3,5-dimethyl-1H-pyrazol-1-yl)pyrimidin-4-amine] showed a pIC50 of 7.38. The same measure for `Cc1ccc(-c2nn(C)c(Nc3cc(-n4nc(C)c(C(F)(F)F)c4C)ncn3)c2C)cn1` [Example 530, N-[1,4-dimethyl-3-(6-methylpyridin-3-yl)-1H-pyrazol-5-yl]-6-[3,5-dimethyl-4-(trifluoromethyl)-1H-pyrazol-1-yl]pyrimidin-4-amine]: 7.48; for `CCOC(=O)c1c(C)nn(-c2cc(Nc3n[nH]c(-c4ccccc4)c3C)ncn2)c1C` [Example 16, ethyl 3,5-dimethyl-1-{6-[(4-methyl-5-phenyl-1H-pyrazol-3-yl)amino]pyrimidin-4-yl}-1H-pyrazole-4-carboxylate]: 7.09; for `CCOC(=O)c1c(C)nn(-c2cc(Nc3c(Cl)c(-c4ccc(F)cc4)nn3CC3CC3)ncn2)c1C` [Example 158, ethyl 1-(6-{[4-chloro-1-(cyclopropylmethyl)-3-(4-fluorophenyl)-1H-pyrazol-5-yl]amino}pyrimidin-4-yl)-3,5-dimethyl-1H-pyrazole-4-carboxylate]: 8.40.

These data come from patent US11208400B2, “Substituted 6-(1H-pyrazol-1-yl)pyrimidin-4-amine derivatives and uses thereof” (Bayer Aktiengesellschaft, priority 2016, dated 2021).
